Test results from patent publication US11485713B2, “Androgen receptor modulators and methods for their use” (ESSA Pharma, Inc., priority 2018, dated 2022).

Experiments:
LNCaP ARE-Luc = assay: Luciferase assay in LNCaP cell lysates (LNCaP ARE-Luc); type: cell-based; conditions: Homo sapiens, Firefly Luciferase Assay System, read-out: LNCaP ARE-Luc % inhibition IC50 Ranges
Method: Lysates were thawed on ice then collected into V-bottom 96-well tissue culture plates. Lysates were centrifuged at 4° C. for 5 minutes at 4000 rpm. To measure luminescence of LNCaP cell lysates the Firefly Luciferase Assay System (Promega) was employed, according to manufacturer's protocol. Relative luminescence units (RLU) in cell lysates were detected for 10 seconds using Promega GoMax-Multi Detection Luminometer (Promega).
Statistical analyses were performed using GraphPad Prism (Version 6.01 for Windows; La Jolla, Calif., USA). Comparisons between treatment and control groups were compared using Two-Way ANOVA with post-hoc Dunnett's and Tukey's tests. Differences were considered statistically significant at P values less than 0.05. Densitometric quantification of relative AR levels was determined by Image.

[1] = Microsomal stability assay, HLM; type: in vitro ADME; conditions: human, pH 7.4, 1 μM test compound, 0.5 mg/mL liver microsomes protein, 37° C., 0-60 min, read-out: HLM +/− NADPH: Clint (μL/min/mg protein)
Excerpt: Microsomal Stability Assay: Microsomal stability assay is a widely used in vitro model to characterize the metabolic conversion by phase I enzymes, such as cytochrome P450 (CYP) enzymes. Since metabolism is known to be highly variable in different species, microsomal stability assay is commonly run in multiple species. Metabolic stability of testing compound can be evaluated using human, rat, mouse, or other animal liver or intestine microsomes to predict intrinsic clearance.
The assay was carried out in 96-well microtiter plates at 37° C. Reaction mixtures (25 μL) contained a final concentration of 1 μM test compound, 0.5 mg/mL liver microsomes protein, and 1 mM NADPH and/or 1 mM UDPGA (with alamethicin) in 100 mM potassium phosphate, pH 7.4 buffer with 3 mM MgCl2. The incubation was done with N=1, but duplicate incubation at each time point can be prepared if necessary. At each of the time points (for example, 0, 15, 30, and 60 minutes), 150 μL of quench solution (100% acetonitrile with 0.1% formic acid) with internal standard was transferred to each well. Besides the zero minute controls, mixtures containing the same components except the NADPH can also be prepared as the negative control. Verapamil was included as a positive control to verify assay performance. Plates were sealed, vortexed, and centrifuged at 4° C. for 15 minutes at 4000 rpm. The supernatant is transferred to fresh plates for LC/MS/MS analysis.
Summarized conditions: [Compound]=1 μM, [LM]=0.5 mg/mL, [NADPH]=1 mM and/or [UDPGA]=1 mM, Buffer=100 mM Potassium Phosphate, pH 7.4 with 3 mM MgCl2, Time=0, 15, 30, and 60 min, and Temperature=37° C.
All samples were analyzed on LC/MS/MS using an AB Sciex API 4000 instrument, coupled to a Shimadzu LC-20AD LC Pump system. Analytical samples were separated using a Waters Atlantis T3 dC18 reverse phase HPLC column (20 mm×2.1 mm) at a flow rate of 0.5 mL/min. The mobile phase consisted of 0.1% formic acid in water (solvent A) and 0.1% formic acid in 100% acetonitrile (solvent B).
The extent of metabolism is calculated as the disappearance of the test compound, compared to the 0-min time incubation. Initial rates are calculated for the compound concentration and used to determine half-life (t½) values and subsequently, the intrinsic clearance (Clint). Clint=(0.693)(1/t½ (min))(g of liver/kg of body weight)(mL incubation/mg of microsomal protein)(45 mg of microsomal protein/g of liver weight)

SMILES | IC50 (LNCaP ARE-Luc) [nM] | microsomal CLint at 1 μM [1] [µL/min/mg]
CC(C)(c1ccc(OCC(=O)CNS(C)(=O)=O)cc1)c1ccc(OCCCCl)c(C#N)c1 [Compound A7] | < 100 | ≥ 48
CC(C)(c1ccc(OCC(=O)C(F)(F)F)cc1)c1cc(Cl)c(OCCCCl)c(Cl)c1 [Compound A91, 3-(4-(2-(3,5-dichloro-4-(3-chloropropoxy)phenyl)propan-2-yl)phenoxy)-1,1,1-trifluoropropan-2-one] | ≥ 250 | < 12
COc1cc(OCCCCl)ccc1C(C)(C)c1ccc(OCC(=O)CNS(C)(=O)=O)cc1 [Compound A4] | ≥ 250 | ≥ 48
COc1cc(C(C)(C)c2ccc(OCCCCl)cc2)ccc1OCC(=O)CNS(C)(=O)=O [Compound A11] | ≥ 250 | ≥ 48
CN(CC(=O)COc1ccc(C(C)(C)c2cc(Cl)c(OCCCCl)c(Cl)c2)cc1)S(C)(=O)=O [Compound A69] | ≥ 250 | ≥ 48
CC(C)N(c1ccc(OCC(=O)CNS(C)(=O)=O)cc1)c1cc(Cl)c(OCCCCl)c(Cl)c1 [Compound A70] | ≥ 250 | ≥ 48
COc1cc(OCC(=O)CNS(C)(=O)=O)ccc1C(C)(C)c1ccc(OCCCCl)cc1 [Compound A12] | ≥ 250 | ≥ 48
CC(C)(c1ccc(OCC(=O)CNS(C)(=O)=O)cc1)c1cc(Cl)c(NCCCCl)c(Cl)c1 [Compound A35] | 100 to 250 | ≥ 48
CC(O)(CCl)COc1c(Cl)cc(C(C)(C)c2ccc(OCC(=O)CS(C)(=O)=O)cc2)cc1Cl (centres unmarked) [Compound A53, 1-(4-(2-(3,5-dichloro-4-(3-chloro-2-hydroxy-2-methypropoxy)phenyl)propan-2-yl)phenoxy)-3-(methylsulfonyl)propan-2-one] | ≥ 250 | –
CC(C)(c1ccc(C(=O)CCCNS(C)(=O)=O)cc1)c1cc(Cl)c(OCCCCl)c(Cl)c1 [Compound A84] | ≥ 250 | 12 to 48
CC(C)(c1ccc(OCC(=O)N2CCN(S(C)(=O)=O)CC2)cc1)c1cc(Cl)c(OCCCCl)c(Cl)c1 [Compound A44] | ≥ 250 | 12 to 48
CS(=O)(=O)NCC(=O)COc1cccc(Cc2ccc(Cl)c(OCCCCl)c2Cl)c1 [Compound A24] | ≥ 250 | ≥ 48
CN(C)C(=O)NCc1ccc(C(C)(C)c2cc(Cl)c(OCCCCl)c(Cl)c2)cc1 [Compound A47] | ≥ 250 | ≥ 48
CN(CCCCl)c1c(Cl)cc(C(C)(C)c2ccc(OCC(=O)CNS(C)(=O)=O)cc2)cc1Cl [Compound A36] | 100 to 250 | ≥ 48
CS(=O)(=O)NCC(=O)COc1ccc(CCc2cc(Cl)c(OCC(O)CCl)c(Cl)c2)cc1 (centres unmarked) [Compound A75, N-(3-(4-(3,5-dichloro-4-(3-chloro-2-hydroxypropoxy)phenethyl)phenoxy)-2-oxopropyl)methanesulfonamide] | 100 to 250 | ≥ 48
CC(C)(c1ccc(OCC(=O)CNS(C)(=O)=O)cc1)c1cc(Cl)c(OCc2ccc(Cl)cc2)c(Cl)c1 [Compound A38] | ≥ 250 | ≥ 48
CCOC(=O)CC(=O)C(F)(F)Oc1ccc(C(C)(C)c2cc(Cl)c(OCCCCl)c(Cl)c2)cc1 [Compound A101] | ≥ 250 | –
COC(=O)C(OC)C(O)(O)C(F)(F)Oc1ccc(C(C)(C)c2cc(Cl)c(OCCCCl)c(Cl)c2)cc1 (centres unmarked) [Compound A97] | 100 to 250 | –
CC(C)(c1ccc(NC(=O)C(=O)C(F)(F)F)cc1)c1cc(Cl)c(OCCCCl)c(Cl)c1 [Compound A93] | ≥ 250 | < 12

SMILES | IC50 (LNCaP ARE-Luc) [nM] | microsomal CLint at 1 μM [1] [µL/min/mg]
CC(C)(c1ccc(CNC(=O)CNS(C)(=O)=O)cc1)c1cc(Cl)c(OCCCCl)c(Cl)c1 [Compound A46, N-(4-(2-(3,5-dichloro-4-(3-chloropropoxy)phenyl)propan-2-yl)benzyl)-2-(methylsulfonamido)acetamide] | ≥ 250 | 12 to 48
CC(C)(c1ccc(NC(=O)CCNS(C)(=O)=O)cc1)c1cc(Cl)c(OCCCCl)c(Cl)c1 [Compound A45] | ≥ 250 | < 12
CC(=O)N(c1ccc(OCC(=O)CNS(C)(=O)=O)cc1)c1cc(Cl)c(OCCCCl)c(Cl)c1 [Compound A71, N-(3,5-dichloro-4-(3-chloropropoxy)phenyl)-N-(4-(3-(methylsulfonamido)-2-oxopropoxy)phenyl)acetamide] | ≥ 250 | ≥ 48
CC(O)(CCl)COc1c(Cl)cc(C(C)(C)c2ccc(OCC(=O)CNS(C)(=O)=O)cc2)cc1Cl (centres unmarked) [Compound A52, N-(3-(4-(2-(3,5-dichloro-4-(3-chloro-2-hydroxy-2-methylpropoxy)phenyl)propan-2-yl)phenoxy)-2-oxopropyl)methanesulfonamide] | < 100 | ≥ 48
CC(C)(c1ccc(OC(F)(F)C(=O)C(N)=O)cc1)c1cc(Cl)c(OCCCCl)c(Cl)c1 [Compound A92] | ≥ 250 | –
CC(C)(c1ccc(OC(F)(F)C(=O)CNS(C)(=O)=O)cc1)c1cc(Cl)c(OCCCCl)c(Cl)c1 [Compound A99, N-(3-(4-(2-(3,5-dichloro-4-(3-chloropropoxy)phenyl)propan-2-yl)phenoxy)-3,3-difluoro-2-oxopropyl)methanesulfonamide] | 100 to 250 | –
CC(=O)C(=O)Nc1ccc(C(C)(C)c2cc(Cl)c(OCCCCl)c(Cl)c2)cc1 [Compound A85] | ≥ 250 | ≥ 48
CC(C)(Oc1ccc(C(C)(C)c2cc(Cl)c(OCCCCl)c(Cl)c2)cc1)C(=O)CNS(C)(=O)=O [Compound A63] | < 100 | ≥ 48
CS(=O)(=O)NCC(=O)COc1ccc(-c2cc(Cl)c(OCCCCl)c(Cl)c2)cc1 [Compound A73, N-(3-((3′,5′-dichloro-4′-(3-chloropropoxy)-[1,1′-biphenyl]-4-yl)oxy)-2-oxopropyl)methanesulfonamide] | ≥ 250 | 12 to 48
CC(CCl)COc1c(Cl)cc(C(C)(C)c2ccc(OCC(=O)CNS(C)(=O)=O)cc2)cc1Cl (centres unmarked) [Compound A32] | < 100 | ≥ 48
CC(C)(c1ccc(OCC(=O)CS(C)(=O)=O)cc1)c1cc(Cl)c(OC[C@H](O)CCl)c(Cl)c1 [A54(S), (S)-1-(4-(2-(3,5-dichloro-4-(3-chloro-2-hydroxypropoxy)phenyl)propan-2-yl)phenoxy)-3-(methylsulfonyl)propan-2-one] | ≥ 250 | –
CC(=O)COc1ccc(C(C)(C)c2cc(Cl)c(OCCCCl)c(Cl)c2)cc1 [Compound A74, 1-(4-(2-(3,5-dichloro-4-(3-chloropropoxy)phenyl)propan-2-yl)phenoxy)propan-2-one] | ≥ 250 | –
CC(C)(c1ccc(OC(F)(F)C(=O)CCNS(C)(=O)=O)cc1)c1cc(Cl)c(OCCCCl)c(Cl)c1 [Compound A94, N-(4-(4-(2-(3,5-dichloro-4-(3-chloropropoxy)phenyl)propan-2-yl)phenoxy)-4,4-difluoro-3-oxobutyl)methanesulfonamide] | ≥ 250 | ≥ 48
CC(C)(c1ccc(OC(F)(F)C(=O)CS(C)(=O)=O)cc1)c1cc(Cl)c(OCCCCl)c(Cl)c1 [Compound A102] | ≥ 250 | –
CC(=O)C(=O)Nc1ccc(C(C)(C)c2cc(Cl)c(OCC(C)(O)CCl)c(Cl)c2)cc1 (centres unmarked) [Compound A96] | ≥ 250 | –
CC(=O)Oc1ccc(C(C)(C)c2cc(Cl)c(OCCCCl)c(Cl)c2)cc1 [Compound A103] | < 100 | –
CC(=O)N(CC(=O)COc1ccc(C(C)(C)c2cc(Cl)c(OCCCCl)c(Cl)c2)cc1)S(C)(=O)=O [Compound A104] | ≥ 250 | –
COCC(=O)C(F)(F)Oc1ccc(C(C)(C)c2cc(Cl)c(OCCCCl)c(Cl)c2)cc1 [Compound A100, 1-(4-(2-(3,5-dichloro-4-(3-chloropropoxy)phenyl)propan-2-yl)phenoxy)-1,1-difluoro-3-methoxypropan-2-one] | ≥ 250 | –
